Data published in patent US8148373B2, “Compounds” (AstraZeneca AB, priority 2008, dated 2012).

Legend:
[1] = target: T1, human muscarinic acetylcholine M3 receptor (M3-ACh) (Homo sapiens, UniProt P20309); assay: Muscarinic 3 Receptor Binding Assay ([3H]NMS competition, SPA); conditions: [3H]NMS 0.1 nM, CHO-K1 cell membranes, 16 hours at room temperature; read-out: M3 pIC50 (converted)
T1 construct: expressed in transfected cells; host or cells: CHO-K1 (Chinese Hamster Ovary) cell membranes
Outline: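 Competition SPA binding of 0.1 nM [3H]NMS (quarter Kd) to membranes from CHO-K1 cells expressing human M3, in 20 mM HEPES pH 7.4, 5 mM MgCl2, 1% DMSO. Incubated 16 h at room temperature; non-specific binding with 1 µM atropine. pIC50 from 50% reduction of specific binding.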

[2] = target: T2, Adrenergic β2 (H292 cells) (Homo sapiens, UniProt P07550); assay: Assay for Adrenergic β2 Mediated cAMP Production (concentration response, AlphaScreen cAMP detection); assay type: cell-based; conditions: for EC50: cAMP production, 60 minutes at room temperature, 300 μM rolipram, read-out: β2 pEC50 (converted); for β2 Intrinsic activity: fraction relative to the maximum activity determined for formoterol
T2 construct: endogenous in cells; host or cells: H292 cells
Outline: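 Intrinsic activity is relative to the per-experiment formoterol maximum, with pEC50 from a four-parameter logistic fit of cAMP levels quantified by AlphaScreen against standards. Cells (H292) got 300 μM rolipram for 10 min, then compound for 60 min at room temperature, 1% DMSO final.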

T2 sequence (P07550 whole entry): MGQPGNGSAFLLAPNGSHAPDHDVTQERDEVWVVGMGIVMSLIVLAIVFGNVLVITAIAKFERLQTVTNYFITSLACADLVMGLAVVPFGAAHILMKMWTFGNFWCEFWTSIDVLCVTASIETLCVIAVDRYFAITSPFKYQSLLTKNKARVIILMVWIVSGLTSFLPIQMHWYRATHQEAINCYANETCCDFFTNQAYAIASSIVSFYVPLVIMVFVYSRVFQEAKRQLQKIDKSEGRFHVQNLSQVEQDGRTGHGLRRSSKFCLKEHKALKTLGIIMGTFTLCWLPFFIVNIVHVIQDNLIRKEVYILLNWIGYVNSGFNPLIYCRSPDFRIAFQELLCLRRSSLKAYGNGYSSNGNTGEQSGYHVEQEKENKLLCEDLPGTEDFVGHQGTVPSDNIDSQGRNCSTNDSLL
T1 sequence (P20309 whole entry): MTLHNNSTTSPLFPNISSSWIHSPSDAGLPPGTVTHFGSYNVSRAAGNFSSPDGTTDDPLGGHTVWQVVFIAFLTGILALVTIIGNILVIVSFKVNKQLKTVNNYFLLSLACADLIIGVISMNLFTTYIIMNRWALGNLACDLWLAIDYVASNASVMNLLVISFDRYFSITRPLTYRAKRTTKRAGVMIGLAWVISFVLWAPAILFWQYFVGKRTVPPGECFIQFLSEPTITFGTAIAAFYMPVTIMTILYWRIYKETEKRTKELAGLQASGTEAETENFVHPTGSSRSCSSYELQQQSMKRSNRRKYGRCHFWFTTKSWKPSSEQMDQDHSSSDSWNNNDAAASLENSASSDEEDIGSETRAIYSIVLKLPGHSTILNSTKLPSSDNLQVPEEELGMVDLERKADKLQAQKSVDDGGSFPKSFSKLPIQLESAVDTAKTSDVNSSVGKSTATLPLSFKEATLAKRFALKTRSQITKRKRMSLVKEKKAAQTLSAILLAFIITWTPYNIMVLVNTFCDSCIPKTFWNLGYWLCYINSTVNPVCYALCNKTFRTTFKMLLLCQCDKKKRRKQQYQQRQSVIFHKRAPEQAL

Row | SMILES | IC50 [1] | EC50 [2] | β2 Intrinsic activity [2]
1 | CC(C)c1nc(C(=O)N2CCOC3(CCN(Cc4cccc(CCCNC[C@H](O)c5ccc(O)c6[nH]c(=O)sc56)c4F)CC3)C2)cs1 [Example 88, (R)-7-(2-(3-(2-Fluoro-3-((4-(2-isopropylthiazole-4-carbonyl)-1-oxa-4,9-diazaspiro[5.5]undecan-9-yl)methyl)phenyl)propylamino)-1-hydroxyethyl)-4-hydroxybenzo[d]thiazol-2(3H)-one ditrifluoroacetate] | 2 nM | 12.6 nM | 1
2 | O=C(c1csc(-c2ccccc2)n1)N1CCOC2(CCN(Cc3cc(F)cc(CCNC[C@H](O)c4ccc(O)c5[nH]c(=O)sc45)c3)CC2)C1 [Example 41, (R)-7-(2-(3-Fluoro-5-((4-(2-phenylthiazole-4-carbonyl)-1-oxa-4,9-diazaspiro[5.5]undecan-9-yl)methyl)phenethylamino)-1-hydroxyethyl)-4-hydroxybenzo[d]thiazol-2(3H)-one ditrifluoroacetate] | 126 nM | 6.31 nM | 1.1
3 | COC(=O)c1ccc(C(=O)N2CCOC3(CCN(Cc4cccc(CCNC[C@H](O)c5ccc(O)c6[nH]c(=O)sc56)c4)CC3)C2)s1 [Example 30, (R)-methyl 5-(9-(3-(2-(2-hydroxy-2-(4-hydroxy-2-oxo-2,3-dihydrobenzo[d]thiazol-7-yl)ethylamino)ethyl)benzyl)-1-oxa-4,9-diazaspiro[5.5]undecane-4-carbonyl)thiophene-2-carboxylate ditrifluoroacetate] | 15.8 nM | 2.51 nM | 0.9
4 | CC(C)c1nc(C(=O)N2CCOC3(CCN(Cc4cc(F)cc(CCNC[C@H](O)c5ccc(O)c6[nH]c(=O)sc56)c4)CC3)C2)cs1 [Example 42, (R)-7-(2-(3-Fluoro-5-((4-(2-isopropylthiazole-4-carbonyl)-1-oxa-4,9-diazaspiro[5.5]undecan-9-yl)methyl)phenethylamino)-1-hydroxyethyl)-4-hydroxybenzo[d]thiazol-2(3H)-one ditrifluoroacetate] | 0.631 nM | 7.94 nM | 1
5 | CC(C)c1nc(C(=O)N2CCOC3(CCN(Cc4cccc(C(C)(C)CNC[C@H](O)c5ccc(O)c6[nH]c(=O)sc56)c4F)CC3)C2)cs1 [Example 90, (R)-7-(2-(2-(2-Fluoro-3-((4-(2-isopropylthiazole-4-carbonyl)-1-oxa-4,9-diazaspiro[5.5]undecan-9-yl)methyl)phenyl)-2-methylpropylamino)-1-hydroxyethyl)-4-hydroxybenzo[d]thiazol-2(3H)-one ditrifluoroacetate] | 79.4 nM | 200 nM | 0.9
6 | Cc1nc(C(=O)N2CCOC3(CCN(CCCOc4ccc(CNC[C@H](O)c5ccc(O)c6[nH]c(=O)sc56)cc4)CC3)C2)cs1 [Example 8, (R)-4-Hydroxy-7-(1-hydroxy-2-(4-(3-(4-(2-methylthiazole-4-carbonyl)-1-oxa-4,9-diazaspiro[5.5]undecan-9-yl)propoxy)benzylamino)ethyl)benzo[d]thiazol-2(3H)-one ditrifluoroacetate] | 3.98 nM | 39.8 nM | 1.0
7 | CC(C)(C)c1nc(C(=O)N2CCOC3(CCN(Cc4cc(F)cc(CCNC[C@H](O)c5ccc(O)c6[nH]c(=O)sc56)c4)CC3)C2)cs1 [Example 50, (R)-7-(2-(3-((4-(2-tert-Butylthiazole-4-carbonyl)-1-oxa-4,9-diazaspiro[5.5]undecan-9-yl)methyl)-5-fluorophenethylamino)-1-hydroxyethyl)-4-hydroxybenzo[d]thiazol-2(3H)-one ditrifluoroacetate] | 39.8 nM | 7.94 nM | 0.9
8 | CC(C)c1nc(C(=O)N2CCOC3(CCN(CCOc4ccc(CCNC[C@H](O)c5ccc(O)c6[nH]c(=O)sc56)c(F)c4F)CC3)C2)cs1 [Example 269, (R)-7-(2-(2,3-Difluoro-4-(2-(4-(2-isopropylthiazole-4-carbonyl)-1-oxa-4,9-diazaspiro[5.5]undecan-9-yl)ethoxy)phenethylamino)-1-hydroxyethyl)-4-hydroxybenzo[d]thiazol-2(3H)-one ditrifluoroacetate] | 6.31 nM | 31.6 nM | 1.1
9 | CCCCc1nc(C(=O)N2CCOC3(CCN(Cc4cccc(CCNC[C@H](O)c5ccc(O)c6[nH]c(=O)sc56)c4F)CC3)C2)cs1 [Example 78, (R)-7-(2-(3-((4-(2-Butylthiazole-4-carbonyl)-1-oxa-4,9-diazaspiro[5.5]undecan-9-yl)methyl)-2-fluorophenethylamino)-1-hydroxyethyl)-4-hydroxybenzo[d]thiazol-2(3H)-one ditrifluoroacetate] | 10 nM | 15.8 nM | 0.9
10 | Cc1nc(C(=O)N2CCOC3(CCN(CCCCCCCCCNC[C@H](O)c4ccc(O)c5[nH]c(=O)sc45)CC3)C2)cs1 [Example 2, (R)-4-Hydroxy-7-(1-hydroxy-2-(9-(4-(2-methylthiazole-4-carbonyl)-1-oxa-4,9-diazaspiro[5.5]undecan-9-yl)nonylamino)ethyl)benzo[d]thiazol-2(3H)-one ditrifluoroacetate] | 0.316 nM | 12.6 nM | 0.8
11 | CC(C)c1nc(C(=O)N2CCOC3(CCN(Cc4cccc(CCNC[C@H](O)c5ccc(O)c6[nH]c(=O)ccc56)c4Cl)CC3)C2)cs1 [Example 81, (R)-5-(2-(2-Chloro-3-((4-(2-isopropylthiazole-4-carbonyl)-1-oxa-4,9-diazaspiro[5.5]undecan-9-yl)methyl)phenethylamino)-1-hydroxyethyl)-8-hydroxyquinolin-2(1H)-one ditrifluoroacetate] | 6.31 nM | 7.94 nM | 0.7
12 | CC(C)c1ccc(C(=O)N2CCOC3(CCN(Cc4cccc(CCNC[C@H](O)c5ccc(O)c6[nH]c(=O)sc56)c4)CC3)C2)s1 [Example 268, (R)-4-Hydroxy-7-(1-hydroxy-2-(3-((4-(5-isopropylthiophene-2-carbonyl)-1-oxa-4,9-diazaspiro[5.5]undecan-9-yl)methyl)phenethylamino)ethyl)benzo[d]thiazol-2(3H)-one ditrifluoroacetate] | 1.58 nM | 10 nM | 1
13 | CCCc1cc(C(=O)N2CCOC3(CCN(Cc4cccc(CCNC[C@H](O)c5ccc(O)c6[nH]c(=O)sc56)c4)CC3)C2)cs1 [Example 267, (R)-4-Hydroxy-7-(1-hydroxy-2-(3-((4-(5-propylthiophene-3-carbonyl)-1-oxa-4,9-diazaspiro[5.5]undecan-9-yl)methyl)phenethylamino)ethyl)benzo[d]thiazol-2(3H)-one ditrifluoroacetate] | 1.58 nM | 10 nM | 0.9
14 | CC(C)c1cnc(C(=O)N2CCOC3(CCN(Cc4cc(F)cc(CCNC[C@H](O)c5ccc(O)c6[nH]c(=O)sc56)c4)CC3)C2)s1 [Example 54, (R)-7-(2-(3-Fluoro-5-((4-(5-isopropylthiazole-2-carbonyl)-1-oxa-4,9-diazaspiro[5.5]undecan-9-yl)methyl)phenethylamino)-1-hydroxyethyl)-4-hydroxybenzo[d]thiazol-2(3H)-one ditrifluoroacetate] | 200 nM | 6.31 nM | 0.9
15 | CC(C)c1nc(C(=O)N2CCOC3(CCN(Cc4cccc(C(F)CNC[C@H](O)c5ccc(O)c6[nH]c(=O)sc56)c4)CC3)C2)cs1 (stereo partly drawn) [Example 39, 7-((1R)-2-(2-Fluoro-2-(3-((4-(2-isopropylthiazole-4-carbonyl)-1-oxa-4,9-diazaspiro[5.5]undecan-9-yl)methyl)phenyl)ethylamino)-1-hydroxyethyl)-4-hydroxybenzo[d]thiazol-2(3H)-one ditrifluoroacetate] | 0.316 nM | 100 nM | 0.9
16 | COC(=O)c1ccc(C(=O)N2CCOC3(CCN(Cc4cccc(CCNC[C@H](O)c5ccc(O)c6[nH]c(=O)ccc56)c4)CC3)C2)s1 [Example 31, (R)-Methyl 5-(9-(3-(2-(2-hydroxy-2-(8-hydroxy-2-oxo-1,2-dihydroquinolin-5-yl)ethylamino)ethyl)benzyl)-1-oxa-4,9-diazaspiro[5.5]undecane-4-carbonyl)thiophene-2-carboxylate ditrifluoroacetate] | 63.1 nM | 5.01 nM | 0.9
17 | O=C(c1csc(C2CC2)n1)N1CCOC2(CCN(Cc3cc(F)cc(CCNC[C@H](O)c4ccc(O)c5[nH]c(=O)sc45)c3)CC2)C1 [Example 57, (R)-7-(2-(3-((4-(2-Cyclopropylthiazole-4-carbonyl)-1-oxa-4,9-diazaspiro[5.5]undecan-9-yl)methyl)-5-fluorophenethylamino)-1-hydroxyethyl)-4-hydroxybenzo[d]thiazol-2(3H)-one ditrifluoroacetate] | 0.794 nM | 6.31 nM | 1.1
18 | Cc1nc(C(=O)N2CCOC3(CCN(CCOc4cccc(CCNC[C@H](O)c5ccc(O)c6[nH]c(=O)sc56)c4)CC3)C2)cs1 [Example 24, (R)-4-Hydroxy-7-(1-hydroxy-2-(3-(2-(4-(2-methylthiazole-4-carbonyl)-1-oxa-4,9-diazaspiro[5.5]undecan-9-yl)ethoxy)phenethylamino)ethyl)benzo[d]thiazol-2(3H)-one ditrifluoroacetate] | 25.1 nM | 5.01 nM | 1
